{
  "source": "patent US11034913B2",
  "about": "“Metal working fluid” (Henkel AG & Co. KGaA, priority 2015, dated 2021)",
  "test_system": "mixed Gram-negative bacteria",
  "experiment": "Minimum inhibitory concentration testing (biostat candidate screening, Phase 1 and Phase 2; dip slide counts)",
  "format": "cell-based",
  "conditions": "for Differential Value Scores, Average / Differential Value Scores, Round 1 / Differential Value Scores, Round 2 / Differential Value Scores, Round 3: Phase 1, scale 0-6, 3 = matches DCHA standard; for Differential Value Scores, Average: average of Rounds 1-3; for Differential Value Scores, Round 1 / Differential Value Scores, Round 2 / Differential Value Scores, Round 3: log bacterial counts at 24 and 48 h versus DCHA standard, higher = better",
  "key": {"[1]": {"conditions": "Phase 2, Round 1, dilution 3 %, 24 hours"}, "[2]": {"conditions": "Phase 2, Round 1, dilution 3 %, 48 hours"}, "[3]": {"conditions": "Phase 2, Round 1, dilution 4 %, 24 hours"}, "[4]": {"conditions": "Phase 2, Round 1, dilution 4 %, 48 hours"}, "[5]": {"conditions": "Phase 2, Round 1, dilution 5 %, 24 hours"}, "[6]": {"conditions": "Phase 2, Round 1, dilution 5 %, 48 hours"}, "[7]": {"conditions": "Phase 2, Round 2, dilution 4 %, 24 hours"}, "[8]": {"conditions": "Phase 2, Round 2, dilution 4 %, 48 hours"}, "[9]": {"conditions": "Phase 2, Round 2, dilution 5 %, 24 hours"}, "[10]": {"conditions": "Phase 2, Round 2, dilution 5 %, 48 hours"}, "[11]": {"conditions": "Phase 2, Round 2, dilution 6 %, 24 hours"}, "[12]": {"conditions": "Phase 2, Round 2, dilution 6 %, 48 hours"}},
  "data": [
    {"smiles": "NCC1CCCC(CN)C1", "note": "(stereo not shown) [C2, 1,3-bis(aminomethyl)cyclohexane]", "values": [
      {"measurement": "Differential Value Scores, Average", "value": 2.5},
      {"measurement": "Differential Value Scores, Round 1", "value": 2.5},
      {"measurement": "Differential Value Scores, Round 2", "value": 4},
      {"measurement": "Differential Value Scores, Round 3", "value": 1}
    ]},
    {"smiles": "NC1CCCCC1N", "note": "(stereo not shown) [C3, 1,2-cyclohexanediamine]", "values": [
      {"measurement": "Differential Value Scores, Average", "value": 2.3},
      {"measurement": "Differential Value Scores, Round 1", "value": 2},
      {"measurement": "Differential Value Scores, Round 2", "value": 4},
      {"measurement": "Differential Value Scores, Round 3", "value": 1},
      {"measurement": "Biostatic efficacy regarding Gram-negative bacteria compared with the DCHA standard", "setting": "result in words, 3 wt. % amine in metal working fluid, listed as Comparative Example 3", "value": "performed below the DCHA standard"}
    ]},
    {"smiles": "CC1CCCCC1N", "note": "(stereo not shown) [C5, 2-methylcyclohexylamine]", "values": [
      {"measurement": "Differential Value Scores, Average", "value": 1.7},
      {"measurement": "Differential Value Scores, Round 1", "value": 1},
      {"measurement": "Differential Value Scores, Round 2", "value": 2.5},
      {"measurement": "Differential Value Scores, Round 3", "value": 1.5}
    ]},
    {"smiles": "CCNC1CCCCC1", "note": "[C6, N-ethylcyclohexylamine]", "values": [
      {"measurement": "Differential Value Scores, Average", "value": 1.7},
      {"measurement": "Differential Value Scores, Round 1", "value": 1.5},
      {"measurement": "Differential Value Scores, Round 2", "value": 2.5},
      {"measurement": "Differential Value Scores, Round 3", "value": 1}
    ]},
    {"smiles": "NC1CCCCC1", "note": "[C7, Cyclohexylamine]", "values": [
      {"measurement": "Differential Value Scores, Average", "value": 1.5},
      {"measurement": "Differential Value Scores, Round 1", "value": 1},
      {"measurement": "Differential Value Scores, Round 2", "value": 2.5},
      {"measurement": "Differential Value Scores, Round 3", "value": 1}
    ]},
    {"smiles": "NCC1CCCCC1", "note": "[C8, Aminomethylcyclohexane]", "values": [
      {"measurement": "Differential Value Scores, Average", "value": 1.5},
      {"measurement": "Differential Value Scores, Round 1", "value": 1},
      {"measurement": "Differential Value Scores, Round 2", "value": 2.5},
      {"measurement": "Differential Value Scores, Round 3", "value": 1}
    ]},
    {"smiles": "CCCCC(CC)CN(CC(CC)CCCC)CC(CC)CCCC", "note": "(stereo not shown) [C9, Tris(2-ethylhexylamine)]", "values": [
      {"measurement": "Amount of new Gram-negative bacteria colonies", "setting": "[1]", "value": "10^7"},
      {"measurement": "Amount of new Gram-negative bacteria colonies", "setting": "[2]", "value": "10^7"},
      {"measurement": "Amount of new Gram-negative bacteria colonies", "setting": "[3]", "value": "10^5"},
      {"measurement": "Amount of new Gram-negative bacteria colonies", "setting": "[4]", "value": "10^7"},
      {"measurement": "Amount of new Gram-negative bacteria colonies", "setting": "[5]", "value": "10^4"},
      {"measurement": "Amount of new Gram-negative bacteria colonies", "setting": "[6]", "value": "10^7"},
      {"measurement": "Amount of new Gram-negative bacteria colonies", "setting": "[7]", "value": "10^3"},
      {"measurement": "Amount of new Gram-negative bacteria colonies", "setting": "[8]", "value": "10^7"},
      {"measurement": "Amount of new Gram-negative bacteria colonies", "setting": "[9]", "value": "10^2"},
      {"measurement": "Amount of new Gram-negative bacteria colonies", "setting": "[10]", "value": "10^7"},
      {"measurement": "Amount of new Gram-negative bacteria colonies", "setting": "[11]", "value": "10^2"},
      {"measurement": "Amount of new Gram-negative bacteria colonies", "setting": "[12]", "value": "10^7"}
    ]},
    {"smiles": "CCC(N)CCN", "note": "(stereo not shown) [C10, 1,3-pentanediamine]", "values": [
      {"measurement": "Amount of new Gram-negative bacteria colonies", "setting": "[1]", "value": "10^7"},
      {"measurement": "Amount of new Gram-negative bacteria colonies", "setting": "[2]", "value": "10^7"},
      {"measurement": "Amount of new Gram-negative bacteria colonies", "setting": "[3]", "value": "10^5"},
      {"measurement": "Amount of new Gram-negative bacteria colonies", "setting": "[4]", "value": "10^7"},
      {"measurement": "Amount of new Gram-negative bacteria colonies", "setting": "[5]", "value": "10^3"},
      {"measurement": "Amount of new Gram-negative bacteria colonies", "setting": "[6]", "value": "10^7"},
      {"measurement": "Amount of new Gram-negative bacteria colonies", "setting": "[7]", "value": "10^2"},
      {"measurement": "Amount of new Gram-negative bacteria colonies", "setting": "[8]", "value": "10^7"},
      {"measurement": "Amount of new Gram-negative bacteria colonies", "setting": "[9]", "value": "10^2"},
      {"measurement": "Amount of new Gram-negative bacteria colonies", "setting": "[10]", "value": "10^7"},
      {"measurement": "Amount of new Gram-negative bacteria colonies", "setting": "[11]", "value": "10^2"},
      {"measurement": "Amount of new Gram-negative bacteria colonies", "setting": "[12]", "value": "10^7"}
    ]},
    {"smiles": "NC1CCC(CC2CCC(N)CC2)CC1", "note": "(stereo not shown) [C11, 4,4′-methylene bis(cyclohexylamine)]", "values": [
      {"measurement": "Amount of new Gram-negative bacteria colonies", "setting": "[1]", "value": "10^7"},
      {"measurement": "Amount of new Gram-negative bacteria colonies", "setting": "[2]", "value": "10^7"},
      {"measurement": "Amount of new Gram-negative bacteria colonies", "setting": "[3]", "value": "10^5"},
      {"measurement": "Amount of new Gram-negative bacteria colonies", "setting": "[4]", "value": "10^7"},
      {"measurement": "Amount of new Gram-negative bacteria colonies", "setting": "[5]", "value": "10^5"},
      {"measurement": "Amount of new Gram-negative bacteria colonies", "setting": "[6]", "value": "10^7"},
      {"measurement": "Amount of new Gram-negative bacteria colonies", "setting": "[7]", "value": "10^2"},
      {"measurement": "Amount of new Gram-negative bacteria colonies", "setting": "[8]", "value": "10^7"},
      {"measurement": "Amount of new Gram-negative bacteria colonies", "setting": "[9]", "value": "10^2"},
      {"measurement": "Amount of new Gram-negative bacteria colonies", "setting": "[10]", "value": "10^7"},
      {"measurement": "Amount of new Gram-negative bacteria colonies", "setting": "[11]", "value": "10^2"},
      {"measurement": "Amount of new Gram-negative bacteria colonies", "setting": "[12]", "value": "10^7"}
    ]},
    {"smiles": "CN(C)CCCN(C)CCCN(C)C", "note": "[C13, N,N,N′,N″,N″-pentamethyl-dipropylenetriamine]", "values": [
      {"measurement": "Amount of new Gram-negative bacteria colonies", "setting": "[1]", "value": "10^7"},
      {"measurement": "Amount of new Gram-negative bacteria colonies", "setting": "[2]", "value": "10^7"},
      {"measurement": "Amount of new Gram-negative bacteria colonies", "setting": "[3]", "value": "10^7"},
      {"measurement": "Amount of new Gram-negative bacteria colonies", "setting": "[4]", "value": "10^7"},
      {"measurement": "Amount of new Gram-negative bacteria colonies", "setting": "[5]", "value": "10^3"},
      {"measurement": "Amount of new Gram-negative bacteria colonies", "setting": "[6]", "value": "10^7"},
      {"measurement": "Amount of new Gram-negative bacteria colonies", "setting": "[7]", "value": "10^2"},
      {"measurement": "Amount of new Gram-negative bacteria colonies", "setting": "[8]", "value": "10^7"},
      {"measurement": "Amount of new Gram-negative bacteria colonies", "setting": "[9]", "value": "10^2"},
      {"measurement": "Amount of new Gram-negative bacteria colonies", "setting": "[10]", "value": "10^7"},
      {"measurement": "Amount of new Gram-negative bacteria colonies", "setting": "[11]", "value": "10^2"},
      {"measurement": "Amount of new Gram-negative bacteria colonies", "setting": "[12]", "value": "10^7"}
    ]}
  ]
}
